In the NIST ThermoML archive (doi:10.1016/j.jct.2006.07.017):

Legend:
[1] = xn = mol fraction of the nth substance listed; conditions: 101 kPa, Liquid
[2] = 298.15 K; 101.33 kPa; Liquid
[3] = refractive index (Na D-line) (dimensionless); conditions: 298.15 K; 101.33 kPa; Liquid; Standard Abbe refractometry

Cc1ccc(C)cc1 [1,4-dimethylbenzene] + CN(C)C=O
[1]
Conditions	mass density [kg/m3]
293.15 K, x1 = 0.0562	941.87
293.15 K, x1 = 0.1211	934.47
293.15 K, x1 = 0.1885	927.18
293.15 K, x1 = 0.2532	920.51
293.15 K, x1 = 0.3225	913.72
293.15 K, x1 = 0.3865	907.74
293.15 K, x1 = 0.4525	901.85
293.15 K, x1 = 0.5121	896.75
293.15 K, x1 = 0.5853	890.75
293.15 K, x1 = 0.6441	886.12
293.15 K, x1 = 0.7154	880.72
293.15 K, x1 = 0.7664	876.98
293.15 K, x1 = 0.8353	872.08
293.15 K, x1 = 0.8901	868.29
293.15 K, x1 = 0.9577	863.74
303.15 K, x1 = 0.0625	931.96
303.15 K, x1 = 0.1321	924.04
303.15 K, x1 = 0.1912	917.66
303.15 K, x1 = 0.2684	909.75
303.15 K, x1 = 0.3325	903.53
303.15 K, x1 = 0.3965	897.61
303.15 K, x1 = 0.4584	892.15
303.15 K, x1 = 0.5214	886.82
303.15 K, x1 = 0.5853	881.64
303.15 K, x1 = 0.6485	876.73
303.15 K, x1 = 0.7112	872.04
303.15 K, x1 = 0.7866	866.61
303.15 K, x1 = 0.8415	862.79
303.15 K, x1 = 0.9054	858.48
303.15 K, x1 = 0.9658	854.51
313.15 K, x1 = 0.0455	924.59
313.15 K, x1 = 0.1112	916.97
313.15 K, x1 = 0.1862	908.77
313.15 K, x1 = 0.2562	901.56
313.15 K, x1 = 0.3215	895.19
313.15 K, x1 = 0.3952	888.37
313.15 K, x1 = 0.4514	883.43
313.15 K, x1 = 0.5111	878.4
313.15 K, x1 = 0.5841	872.52
313.15 K, x1 = 0.6451	867.83
313.15 K, x1 = 0.7124	862.86
313.15 K, x1 = 0.7854	857.69
313.15 K, x1 = 0.8451	853.61
313.15 K, x1 = 0.9011	849.9
313.15 K, x1 = 0.9655	845.75

Cc1cccc(C)c1 [1,3-dimethylbenzene]
Conditions	mass density [kg/m3]	refractive index
[2]	859.83	–
[3]	–	1.4973

Cc1ccccc1C [1,2-dimethylbenzene]
Conditions	mass density [kg/m3]	refractive index
[2]	875.73	–
[3]	–	1.5057

Cc1ccc(C)cc1 [1,4-dimethylbenzene]
Conditions	mass density [kg/m3]	refractive index
[2]	856.58	–
[3]	–	1.4958

CN(C)C=O [dimethylformamide]
Conditions	mass density [kg/m3]	refractive index
[2]	943.85	–
[3]	–	1.4307
